The values that follow come from ChEMBL document CHEMBL1147319, “Spectroscopic and biological investigation of nimbolide and 28-deoxonimbolide from Azadirachta indica” (1989).

Assay type in all cases: functional
Assay [1] is described as follows: Cytotoxicity against human BC1 cells after 72 hrs. To be noted: BC1, 72 h, read-out: ED50 (the source's name).
Another assay concerns Col2. Description: Cytotoxicity against human Col2 cells after 72 hrs. To be noted: Col2, 72 h, read-out: ED50 (the source's name).
The subject of the next assay is HT-1080. Description: Cytotoxicity against human HT1080 cells after 48 hrs. To be noted: HT-1080, 48 h, read-out: ED50 (the source's name).
For the next assay, the system named is Lu1. Description: Cytotoxicity against human Lu1 cells. To be noted: read-out: ED50 (the source's name).
The test system of a further assay is SK-MEL-2. The experiment in a line: Cytotoxicity against human SK-MEL-2 cells after 72 hrs. Particulars: SK-MEL-2, 72 h, read-out: ED50 (the source's name).
The next assay concerns KB. Description: Cytotoxicity against human KB cells after 72 hrs. Particulars: read-out: ED50 (the source's name).
A further assay has as its system P388. Description: Cytotoxicity against mouse P388 cells after 48 hrs. Particulars: P388, 48 h, read-out: ED50 (the source's name).

Converted amounts (≈) assume the structure as drawn.

For `COC(=O)C[C@H]1[C@]2(C)C3=C(C)[C@H](c4ccoc4)C[C@H]3O[C@@H]2[C@@H]2OC[C@]3(C)C=CC(=O)[C@@]1(C)[C@@H]23`, the EC50 in assay [1] stood at 1.34 µg/mL (≈ 2.96 µM); in the assay with Col2, 1.81 µg/mL (≈ 4 µM); in the assay with HT-1080, 1.04 µg/mL (≈ 2.3 µM); in the assay on Lu1, 0.84 µg/mL (≈ 1.86 µM); with SK-MEL-2, 2.05 µg/mL (≈ 4.53 µM); in the assay on KB, 1.3 µg/mL (≈ 2.87 µM). Moreover, the EC50 with P388 worked out at 0.66 µg/mL (≈ 1.46 µM).

Regarding `COC(=O)C[C@H]1[C@]2(C)C3=C(C)[C@H](c4ccoc4)C[C@H]3O[C@@H]2[C@@H]2OC(=O)[C@]3(C)C=CC(=O)[C@@]1(C)[C@@H]23` [NIMBOLIDE], the EC50 was 0.39 µg/mL (≈ 0.836 µM) in assay [1]; 0.41 µg/mL (≈ 0.879 µM) with Col2; 0.31 µg/mL (≈ 0.664 µM) with HT-1080; 0.42 µg/mL (≈ 0.9 µM) in the assay on Lu1; 0.53 µg/mL (≈ 1.14 µM) in the assay on SK-MEL-2; 0.25 µg/mL (≈ 0.536 µM) in the assay with KB. Further, the EC50 in the assay on P388 was 0.065 µg/mL (≈ 0.139 µM).
